Here are results for nine compounds from US20220016115A1, “USP19 INHIBITORS FOR USE IN THERAPY” (ALMAC DISCOVERY LIMITED, priority 2018, published 2022).

For the assay, the target named is T1, USP19 (Homo sapiens, UniProt O94966).
T1 sequence (O94966 1-1318): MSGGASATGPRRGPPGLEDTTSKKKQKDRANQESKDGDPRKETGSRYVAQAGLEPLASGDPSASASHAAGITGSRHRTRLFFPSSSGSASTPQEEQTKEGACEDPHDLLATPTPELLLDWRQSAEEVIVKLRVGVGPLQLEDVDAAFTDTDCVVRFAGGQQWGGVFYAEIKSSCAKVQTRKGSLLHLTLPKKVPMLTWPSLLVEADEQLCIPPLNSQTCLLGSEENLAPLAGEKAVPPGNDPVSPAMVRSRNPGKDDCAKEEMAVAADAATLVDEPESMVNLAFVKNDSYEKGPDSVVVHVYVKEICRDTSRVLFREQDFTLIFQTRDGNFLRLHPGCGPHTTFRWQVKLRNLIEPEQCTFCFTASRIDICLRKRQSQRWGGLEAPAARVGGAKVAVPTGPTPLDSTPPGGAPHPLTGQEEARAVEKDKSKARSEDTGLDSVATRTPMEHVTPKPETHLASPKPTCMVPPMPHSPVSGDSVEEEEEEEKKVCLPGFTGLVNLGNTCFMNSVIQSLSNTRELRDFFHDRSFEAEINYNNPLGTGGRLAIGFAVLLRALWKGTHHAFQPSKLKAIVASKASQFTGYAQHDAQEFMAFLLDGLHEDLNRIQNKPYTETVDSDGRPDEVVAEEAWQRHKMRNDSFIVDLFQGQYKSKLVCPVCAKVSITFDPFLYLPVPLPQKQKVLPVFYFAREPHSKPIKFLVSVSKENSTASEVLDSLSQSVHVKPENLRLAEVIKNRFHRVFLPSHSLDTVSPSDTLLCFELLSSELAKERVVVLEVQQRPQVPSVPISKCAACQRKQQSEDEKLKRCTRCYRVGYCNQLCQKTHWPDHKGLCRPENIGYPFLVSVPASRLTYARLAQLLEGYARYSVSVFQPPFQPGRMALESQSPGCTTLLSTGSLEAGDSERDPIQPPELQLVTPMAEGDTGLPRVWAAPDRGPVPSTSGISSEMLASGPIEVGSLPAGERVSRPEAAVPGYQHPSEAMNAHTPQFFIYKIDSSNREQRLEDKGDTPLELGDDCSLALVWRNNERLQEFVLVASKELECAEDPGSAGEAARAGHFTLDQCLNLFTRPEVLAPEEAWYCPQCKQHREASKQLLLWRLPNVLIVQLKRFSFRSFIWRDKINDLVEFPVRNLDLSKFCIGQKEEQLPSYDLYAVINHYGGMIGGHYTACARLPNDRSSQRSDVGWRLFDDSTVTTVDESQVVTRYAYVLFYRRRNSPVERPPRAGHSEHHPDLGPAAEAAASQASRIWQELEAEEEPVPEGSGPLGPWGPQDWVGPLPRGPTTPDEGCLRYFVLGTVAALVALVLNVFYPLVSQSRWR
The experiment in a line: USP19 fluorescence polarisation (FP) homogeneous assay. The assay is classed as biochemical. On the set-up: Full-length USP19 was purchased from Boston Biochem (E-576); purchased Boston Biochem E-576. The conditions noted are these: Ubiquitin-Lys-TAMRA substrate, full-length USP19 2.5 nM, average of at least two duplicate experiments. The protocol: Unless otherwise stated, all other reagents were purchased from Sigma. Enzymatic reactions were conducted in black flat bottom polystyrene 384-well plates (Nunc) and 30 μL total volume. […] Inhibitors were stored as 10 mM DMSO stocks in an inert environment (low humidity, dark, low oxygen, room temperature) using the Storage Pod System and serial dilutions were prepared in buffer just prior to the assay (from 200 μM to 2 μM, 8-18 data point curve). Following incubation at RT for 30 min, the enzymatic reactions were initiated by dispensing the Ub substrate (500 nM, 10 μL). FP was measured every 15 min over a period of 90 min (within the linear range of the assay) using a Synergy 4 plate reader (BioTek) exciting at 530 nm and measuring the amount of parallel and perpendicular light at 575 nm. The FP signal was subsequently normalised to the no compound control.

What is called IC50 is the concentration needed to halve the response being measured. Take “3-(((S)-10-Hydroxy-7-((2R,3R)-2-phenylpyrrolidine-3-carbonyl)-7-azaspiro[4.5]decan-10-yl)methyl)-6-phenylpyrimidin-4(3H)-one and 3-(((S)-10-Hydroxy-7-((2a3S)-2-phenylpyrrolidine-3-carbonyl)-7-azaspiro[4.5]decan-10-yl)methyl)-6-phenylpyrimidin-4(3H)-one [Example 260]”: the half-inhibitory concentration (IC50) is below 500 nM.
For `C[C@H](CC1CCCCC1)C(=O)N1CCC(O)(Cn2cc(C(=O)N(C)C)c(N(C)C)cc2=O)C2(CCCC2)C1` (stereo partly drawn) [Example 145, 1-((7-((R)-3-Cyclohexyl-2-methylpropanoyl)-10-hydroxy-7-azaspiro[4.5]decan-10-yl)methyl)-4-(dimethylamino)-N,N-dimethyl-6-oxo-1,6-dihydropyridine-3-carboxamide], the IC50 was below 500 nM.
Turning to `CCC(n1cnc(-c2ccccc2)cc1=O)C1(O)CCN(C(=O)[C@H](C)CC2CCCCC2)CC1` (stereo partly drawn) [Example 43, 3-((S)-1-(1-((R)-3-Cyclohexyl-2-methylpropanoyl)-4-hydroxypipendin-4-yl)propyl)-6-phenylpyrimidin-4(3H)-one and 3-((R)-1-(1-((R)-3-cyclohexyl-2-methylpropanoyl)-4-hydroxypipendin-4-yl)propyl)-6-phenylpyrimidin-4(3H)-one], the IC50 was 5000 to 50000 nM.
In the case of `O=C([C@@H]1CCNC[C@H]1c1ccccc1)N1CCC(O)(Cn2cnc(-c3ccccc3)cc2=O)C2(CCCC2)C1` (stereo partly drawn) [Example 254, 3-((10-Hydroxy-7-((3R,4R)-3-phenylpiperidine-4-carbonyl)-7-azaspiro[4.5]decan-10-yl)methyl)-6-phenylpyrimidin-4(3H)-one] it was below 500 nM.
In the case of `C[C@H](CC1CCCCC1)C(=O)N1CCC(O)(Cn2cnc(-c3ccccc3)cc2=O)C(C)(C)C1` (mixture of isomers) [Example 50, 3-(((R)-1-((R)-3-Cyclohexyl-2-methylpropanoyl)-4-hydroxy-3,3-dimethylpiperidin-4-yl)methyl)-6-phenylpyrimidin-4(3H)-one and 3-(((S)-1-((R)-3-Cyclohexyl-2-methylpropanoyl)-4-hydroxy-3,3-dimethylpiperidin-4-yl)methyl)-6-phenylpyrimidin-4(3H)-one], the 50% inhibitory concentration (IC50) is below 500 nM.
In the case of `C[C@H](CC1CCCCC1)C(=O)N1CC[C@@](O)(Cn2cc(C(=O)N(C)C)c(-c3ccccc3)cc2=O)C(C)(C)C1` [Example 121, 1-(((S)-1-((R)-3-Cyclohexyl-2-methylpropanoyl)-4-hydroxy-3,3-dimethylpiperidin-4-yl)methyl)-N,N-dimethyl-6-oxo-4-phenyl-1,6-dihydropyridine-3-carboxamide] it was below 500 nM.
The value for `C[C@H](CC1CCCCC1)C(=O)N1CC[C@@](O)(Cn2cc(C(=O)N3CCN(C)CC3)c(-c3ccccc3)cc2=O)C2(CCCC2)C1` [Example 240, 1-(((S)-7-((R)-3-Cyclohexyl-2-methylpropanoyl)-10-hydroxy-7-azaspiro[4.5]decan-10-yl)methyl)-5-(4-methylpiperazine-1-carbonyl)-4-phenylpyridin-2(1 H)-one] was below 500 nM; that for `CC(CC1CCC1)C(=O)N1CCC(O)(Cn2cc(C(=O)N3CCCCC3)c(-c3ccccc3)cc2=O)CC1` (racemic) [Example 15, (R,S)-1-((3-Cyclobutyl-2-methylpropanoyl)-4-hydroxypiperidin-4-yl)methyl)-4-phenyl-5-(piperidine-1-carbonyl)pyridin-2(1H)-one] was 5000 to 50000 nM; that for `C[C@H](CC1CCCCC1)C(=O)N1CC[C@@](O)(Cn2cc(C(=O)N3CCNCC3)c(-c3ccccc3)cc2=O)C2(CCCC2)C1` [Example 212, 1-(((S)-7-((R)-3-Cyclohexyl-2-methylpropanoyl)-10-hydroxy-7-azaspiro[4.5]decan-10-yl)methyl)-4-phenyl-5-(piperazine-1-carbonyl)pyridin-2(1H)-one] was below 500 nM.
